Measured values from patent publication US11077090B2, “Compounds and compositions and uses thereof” (Sunovion Pharmaceuticals Inc., priority 2016, dated 2021).

Each compound was assayed on compound-treated mice (assay: Neuropharmacological assay (SmartCube): behavioral activity signature and minimal effective dose). Details: Mus musculus, ip, MED = dose having 50% or more total activity, read-out: Potency: minimal effective dose (MED).
Type: in vivo
In short: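 Mice dosed i.p. 15 min before test, compound in N-methyl-2-pyrrolidone/PEG/propylene glycol, 3 doses; video-captured behavior matched to reference-drug signatures, giving per-class probabilities at most efficacious dose. MED from doses typically 0.3–30 mpk, defined as lowest dose with ≥50% total activity.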

Row | SMILES | minimal effective dose
1 | Cc1ccc2c(c1)CCOCC2N.Cl (stereo not drawn) [Example 36] | 3 to 10 mg/kg
2 | Cc1cccc2c1COCCC2N.Cl (stereo not drawn) [Example 37] | 10 to 30 mg/kg
3 | Cl.NC1CCOCc2cc(Cl)ccc21 (stereo not drawn) [Example 38] | 10 to 30 mg/kg
4 | Cc1cccc2c1C(N)CCOC2.Cl (stereo not drawn) [Example 39] | 3 to 10 mg/kg
5 | Cl.NC1CCOCc2c(Cl)cccc21 (stereo not drawn) [Example 40] | 3 to 10 mg/kg
6 | Cl.NC1CCOCc2cccc(Cl)c21 (stereo not drawn) [Example 41] | 10 to 30 mg/kg
7 | Cc1ccc2c(c1C)C(N)COC2.Cl (stereo not drawn) [Example 42, 5,6-Dimethylisochroman-4-amine hydrochloride] | < 3 mg/kg
8 | Cc1ccc2c(c1C)C(N)CCOC2.Cl (stereo not drawn) [Example 43, 6,7-Dimethyl-1,3,4,5-tetrahydrobenzo [c]oxepin-5-amine hydrochloride] | 10 to 30 mg/kg
9 | Cl.NC1COCc2ccc(Cl)c(Cl)c21 (stereo not drawn) [Example 44, 5,6-Dichloroisochroman-4-amine hydrochloride] | 3 to 10 mg/kg
10 | Cc1ccc2c(c1Cl)C(N)COC2.Cl (stereo not drawn) [Example 45, 5-Chloro-6-methylisochroman-4-amine hydrochloride] | 3 to 10 mg/kg
11 | Cc1cc(C)c2c(c1)C(N)COC2.Cl (stereo not drawn) [Example 46, 6,8-Dimethylisochroman-4-amine hydrochloride] | < 3 mg/kg
12 | Cc1ccc(C)c2c1COCC2N.Cl (stereo not drawn) [Example 47, 5,8-Dimethylisochroman-4-amine hydrochloride] | < 3 mg/kg
13 | Cc1ccc(Cl)c2c1C(N)COC2.Cl (stereo not drawn) [Example 48, 8-Chloro-5-methylisochroman-4-amine hydrochloride] | < 3 mg/kg
14 | Cc1cc(Cl)c2c(c1)C(N)COC2.Cl (stereo not drawn) [Example 49, 8-Chloro-6-methylisochroman-4-amine hydrochloride] | 3 to 10 mg/kg
15 | Cl.NC1COCc2c1ccc1ccccc21 (stereo not drawn) [Example 50, 3,4-Dihydro-1H-benzo[h]isochromen-4-amine hydrochloride] | 10 to 30 mg/kg

Same assay, conditions: i.p. 15 min before test, most efficacious dose(s)

Row | SMILES | AD: ADHD (probability of activity signature) | AG: analgesic (probability of activity signature) | AX: anxiolytic (probability of activity signature) | CE: cognitive enhancer (probability of activity signature) | DP: anti-depressant (probability of activity signature) | MS: mood stabilizer (probability of activity signature) | PS: anti-psychotic (probability of activity signature) | SD: sedative hypnotic (probability of activity signature) | UN: uncharacterized CNS activity (probability of activity signature)
16 | Cc1ccc2c(c1)CCOCC2N.Cl (stereo not drawn) [Example 36] | + (LOQ ≤ + <5%) | ++ (5% ≤ ++ <25%) | ++ (5% ≤ ++ <25%) | +++ (25% ≤ +++ <50%) | ++ (5% ≤ ++ <25%) | + (LOQ ≤ + <5%) | ++ (5% ≤ ++ <25%) | ++ (5% ≤ ++ <25%) | ++ (5% ≤ ++ <25%)
17 | Cc1cccc2c1COCCC2N.Cl (stereo not drawn) [Example 37] | + (LOQ ≤ + <5%) | ++ (5% ≤ ++ <25%) | ++ (5% ≤ ++ <25%) | ++ (5% ≤ ++ <25%) | + (LOQ ≤ + <5%) | + (LOQ ≤ + <5%) | ++ (5% ≤ ++ <25%) | + (LOQ ≤ + <5%) | +++ (25% ≤ +++ <50%)
18 | Cl.NC1CCOCc2cc(Cl)ccc21 (stereo not drawn) [Example 38] | + (LOQ ≤ + <5%) | ++ (5% ≤ ++ <25%) | ++ (5% ≤ ++ <25%) | + (LOQ ≤ + <5%) | ++ (5% ≤ ++ <25%) | + (LOQ ≤ + <5%) | ++ (5% ≤ ++ <25%) | + (LOQ ≤ + <5%) | +++ (25% ≤ +++ <50%)
19 | Cc1cccc2c1C(N)CCOC2.Cl (stereo not drawn) [Example 39] | + (LOQ ≤ + <5%) | ++ (5% ≤ ++ <25%) | +++ (25% ≤ +++ <50%) | ++ (5% ≤ ++ <25%) | ++ (5% ≤ ++ <25%) | + (LOQ ≤ + <5%) | + (LOQ ≤ + <5%) | + (LOQ ≤ + <5%) | ++++ (50% ≤ ++++)
20 | Cl.NC1CCOCc2c(Cl)cccc21 (stereo not drawn) [Example 40] | + (LOQ ≤ + <5%) | ++ (5% ≤ ++ <25%) | +++ (25% ≤ +++ <50%) | ++ (5% ≤ ++ <25%) | + (LOQ ≤ + <5%) | + (LOQ ≤ + <5%) | ++ (5% ≤ ++ <25%) | + (LOQ ≤ + <5%) | ++ (5% ≤ ++ <25%)
21 | Cl.NC1CCOCc2cccc(Cl)c21 (stereo not drawn) [Example 41] | + (LOQ ≤ + <5%) | ++ (5% ≤ ++ <25%) | ++ (5% ≤ ++ <25%) | ++ (5% ≤ ++ <25%) | ++ (5% ≤ ++ <25%) | + (LOQ ≤ + <5%) | + (LOQ ≤ + <5%) | + (LOQ ≤ + <5%) | +++ (25% ≤ +++ <50%)
22 | Cc1ccc2c(c1C)C(N)COC2.Cl (stereo not drawn) [Example 42, 5,6-Dimethylisochroman-4-amine hydrochloride] | + (LOQ ≤ + <5%) | +++ (25% ≤ +++ <50%) | ++ (5% ≤ ++ <25%) | ++ (5% ≤ ++ <25%) | ++ (5% ≤ ++ <25%) | + (LOQ ≤ + <5%) | +++ (25% ≤ +++ <50%) | ++ (5% ≤ ++ <25%) | +++ (25% ≤ +++ <50%)
23 | Cc1ccc2c(c1C)C(N)CCOC2.Cl (stereo not drawn) [Example 43, 6,7-Dimethyl-1,3,4,5-tetrahydrobenzo [c]oxepin-5-amine hydrochloride] | + (LOQ ≤ + <5%) | ++ (5% ≤ ++ <25%) | +++ (25% ≤ +++ <50%) | ++ (5% ≤ ++ <25%) | + (LOQ ≤ + <5%) | + (LOQ ≤ + <5%) | ++ (5% ≤ ++ <25%) | ++ (5% ≤ ++ <25%) | + (LOQ ≤ + <5%)
24 | Cl.NC1COCc2ccc(Cl)c(Cl)c21 (stereo not drawn) [Example 44, 5,6-Dichloroisochroman-4-amine hydrochloride] | + (LOQ ≤ + <5%) | ++ (5% ≤ ++ <25%) | +++ (25% ≤ +++ <50%) | ++ (5% ≤ ++ <25%) | ++ (5% ≤ ++ <25%) | + (LOQ ≤ + <5%) | ++ (5% ≤ ++ <25%) | ++ (5% ≤ ++ <25%) | +++ (25% ≤ +++ <50%)
25 | Cc1ccc2c(c1Cl)C(N)COC2.Cl (stereo not drawn) [Example 45, 5-Chloro-6-methylisochroman-4-amine hydrochloride] | + (LOQ ≤ + <5%) | ++ (5% ≤ ++ <25%) | +++ (25% ≤ +++ <50%) | ++ (5% ≤ ++ <25%) | ++ (5% ≤ ++ <25%) | + (LOQ ≤ + <5%) | ++ (5% ≤ ++ <25%) | ++ (5% ≤ ++ <25%) | ++++ (50% ≤ ++++)
26 | Cc1cc(C)c2c(c1)C(N)COC2.Cl (stereo not drawn) [Example 46, 6,8-Dimethylisochroman-4-amine hydrochloride] | + (LOQ ≤ + <5%) | ++ (5% ≤ ++ <25%) | ++ (5% ≤ ++ <25%) | ++ (5% ≤ ++ <25%) | + (LOQ ≤ + <5%) | + (LOQ ≤ + <5%) | + (LOQ ≤ + <5%) | ++ (5% ≤ ++ <25%) | ++++ (50% ≤ ++++)
27 | Cc1ccc(C)c2c1COCC2N.Cl (stereo not drawn) [Example 47, 5,8-Dimethylisochroman-4-amine hydrochloride] | + (LOQ ≤ + <5%) | ++ (5% ≤ ++ <25%) | ++ (5% ≤ ++ <25%) | ++ (5% ≤ ++ <25%) | ++ (5% ≤ ++ <25%) | ++ (5% ≤ ++ <25%) | ++ (5% ≤ ++ <25%) | + (LOQ ≤ + <5%) | ++++ (50% ≤ ++++)
28 | Cc1ccc(Cl)c2c1C(N)COC2.Cl (stereo not drawn) [Example 48, 8-Chloro-5-methylisochroman-4-amine hydrochloride] | + (LOQ ≤ + <5%) | ++ (5% ≤ ++ <25%) | +++ (25% ≤ +++ <50%) | +++ (25% ≤ +++ <50%) | + (LOQ ≤ + <5%) | + (LOQ ≤ + <5%) | ++ (5% ≤ ++ <25%) | ++ (5% ≤ ++ <25%) | ++ (5% ≤ ++ <25%)
29 | Cc1cc(Cl)c2c(c1)C(N)COC2.Cl (stereo not drawn) [Example 49, 8-Chloro-6-methylisochroman-4-amine hydrochloride] | + (LOQ ≤ + <5%) | ++ (5% ≤ ++ <25%) | ++ (5% ≤ ++ <25%) | ++ (5% ≤ ++ <25%) | ++ (5% ≤ ++ <25%) | + (LOQ ≤ + <5%) | ++ (5% ≤ ++ <25%) | ++ (5% ≤ ++ <25%) | ++++ (50% ≤ ++++)
30 | Cl.NC1COCc2c1ccc1ccccc21 (stereo not drawn) [Example 50, 3,4-Dihydro-1H-benzo[h]isochromen-4-amine hydrochloride] | + (LOQ ≤ + <5%) | ++ (5% ≤ ++ <25%) | ++ (5% ≤ ++ <25%) | ++ (5% ≤ ++ <25%) | +++ (25% ≤ +++ <50%) | + (LOQ ≤ + <5%) | ++ (5% ≤ ++ <25%) | + (LOQ ≤ + <5%) | ++ (5% ≤ ++ <25%)
